The values that follow come from patent US6586461B1, “Prenyl transferase inhibitors” (Wayne State University, priority 1998, dated 2003).

In experiment [1] the target is recombinant mFTase (affinity purified rat FPTase) (Rattus norvegicus, UniProt Q02293+Q04631). Nature of the experiment: FTase scintillation proximity assay. The format is biochemical. Particulars: for IC50: recombinant mFTase, tritiated FPP 0.12 μM, peptide 0.1 μM; for FTase/GGTase: selectivity mFTase against mGGTase I. How it is done: (§1) The method is described in detail in Yokama, et al., J. Biol. Chem., Vol. 272, No. 7, pages 3944-3952 (February 1997). The FTase, tritiated FPP, and the peptide were incubated at 37° C. for 30 minutes in a buffer. After incubation, a stop reagent and streptavidin beads (Amersham) were added. The radioactive product was counted on a Wallac Microbeta 1450 scintillation counter. The kinetic fits were derived from a nonlinear least squares computer fit of the data. The Ki values were determined using the same assay system with varying concentrations of tritiated FPP.

Another experiment concerns the target recombinant mGGTase I (Homo sapiens, UniProt P49354+P53609). Nature of the experiment: GGTase I scintillation proximity assay. The conditions noted are these: tritiated GGPP. The format is biochemical. How it is done: as §1
GGTase I values were determined in a similar manner using recombinant mGGTase I, tritiated GGPP, and the peptide Biotin-Aha-Thr-Lys-Cys-Val-Ile-Leu-OH.
Background: Scintillation proximity formats need no separation of bound from free tracer.

Experiment [2] has as its system H-Ras-F cells. Nature of the experiment: Cell morphology of lovastatin-treated H-Ras-F cells. The conditions noted are these: 25 μM lovastatin 24 h, then analog 24 h. It counts as cell-based. How it is done: (§2) It has been well established that levels of lovastatin that completely block the mevalonate pathway result in cell cycle blockade, significant cytotoxicity, and a sharp change in cell appearance to a rounded morphology. The effects of lovastatin on the cell morphology of H-Ras-F and H-Ras-GG cells treated with FPP, GGPP, 3-vFPP, 3-vGGPP, 3-alFPP, and 3-alGGPP were photographed and the results are shown on FIG. 9 (H-Ras-F) and 8 (H-Ras-GG), respectively. The H-Ras-F and H-Ras-GG cells were grown in six-well plates to 70-80% confluence. After treating the cells with lovastatin (25 μM) for 24 hour, the indicated FPP or GGPP analogs (re-suspended in media) were added directly to the cell media. Photographs were taken after an additional 24 hour incubation period.

The test system of another experiment is H-Ras-GG cells. Nature of the experiment: Cell morphology of lovastatin-treated H-Ras-GG cells. The format is cell-based. Particulars: 25 μM lovastatin 24 h, then analog 24 h. How it is done:
as §2

Experiment [3] relates to NIH 3T3 fibroblasts transfected with H-Ras(61 L) [H-Ras-F]. Kind of experiment: Soft agar anchorage-independent growth, H-Ras-F cells. The format is cell-based. The conditions noted are these: soft agar, 2 weeks; read-out: Mean IC50 (±S.E.) H-Ras-F. As for the experimental part: (§3) Presumably, the non-polar alcohols pass through the cell membrane and are then diphosphorylated by an as yet uncharacterized kinase to FPP or GGPP.
(§4) The 3-substituted analogs were evaluated as inhibitors of the growth of ras-transformed cells by comparing their relative degree of activity against an isogenic panel of transformed cell lines, comprised of NIH 3T3 fibroblasts transfected with either H-Ras(61 L) [H-Ras-F], H-Ras(61 L)CVLL [H-Ras-GG], or a transforming form of c-raf [Raf]. The H-Ras-F, H-Ras-GG, and raf transformed NIH3T3 cell lines have been previously described in Cox, et al., Molecular and Cellular Biology, Vol. 12, No. 6, pages 2606-2615 (1992). The cells were grown prior to plating in Dulbecco's modified Eagle medium supplemented with 10% calf serum and 1% antibiotic/antimycotic at 37° C. and 10% CO2. Experiments were carried out in 6-well dishes in a two layer agar system (0.6% bottom layer and 0.3% top layer). Cells were incorporated into the top layer along with varying concentrations of the compound prepared in ethanol. Compound addition occurred only at the time the cells were seeded. Subsequent incubation was at 37° C. with 10% CO2 for 2 weeks. Colonies were stained with 0.5 ml/well of 1 mg/ml p-iodonitrotetrazolium violet (Sigma) for 24 hours prior to quantitation by image analysis.

Experiment [4] deals with NIH 3T3 fibroblasts transfected with H-Ras(61 L)CVLL [H-Ras-GG]. Kind of experiment: Soft agar anchorage-independent growth, H-Ras-GG cells. The format is cell-based. The conditions noted are these: 2 weeks, read-out: Mean IC50 (±S.E.) H-Ras-GG. As for the experimental part:
as §3, §4

Experiment [5] relates to NIH 3T3 fibroblasts transfected with a transforming form of c-raf [Raf]. Nature of the experiment: Soft agar anchorage-independent growth, Raf cells. It counts as cell-based. The conditions noted are these: 2 weeks, mean of two tests. How it is done:
as §3, §4

The test system of experiment [6] is H-Ras-GG in H-Ras-GG cells. Kind of experiment: Subcellular fractionation / Western blot of Ras in lovastatin-treated H-Ras-GG cells. It counts as cell-based. The conditions noted are these: for Protein geranylgeranylation in cells: summary statement. As for the experimental part:
H-Ras-F (A) or H-Ras-GG (B) cells were treated with 25 μM lovastatin for 24 h after which the indicated FPP or GGPP analogs (resuspended in media) were added directly to the cell media. Following an additional 24 h incubation period, the cells were harvested, lysed and the membranes (M) separated from the cytosol (C). After solubilization of the membrane fraction, Ras protein was immunoprecipitated from both the membrane and cytosolic fractions by the addition of the Y13-259 antibody (OP04 from Oncogene Science). The presence of Ras protein in each fraction was analyzed by Western transfer techniques. Incubation with the primary antibody (pan-ras Ab-2 from Oncogene Science) and an anti-mouse HRP conjugate secondary antibody (Amersham) was employed for detection of the ras protein. Blots were developed using Enhanced Chemiluminescence techniques (Amersham). The technique is described in detail by Scholten, et al., Bioorg. Med. Chem., Vol. 4, pages 1537-1543 (1992).
The selectivity and mechanism of the observed cell growth inhibition was further probed by studying the effects of the 3-vinyl and 3-allyl GGPP analogs on the subcellular distribution of the geranylgeranylated protein variant in H-Ras-GG cells in a manner similar to that described for 3-vFPP and 3-alFPP. The Western blot is shown on FIG. 8. With H-Ras-GG cells, as with H-Ras-F cells, blockage of the mevalonate pathway results in a shift in the subcellular location of the Ras protein from the membrane to the cytosol.

Experiment [7] relates to H-Ras-F cells. Nature of the experiment: Incorporation of radiolabel into proteins of H-Ras-F cells. The format is cell-based. The conditions noted are these: 5 μM, 18 h, lovastatin-treated H-Ras-F cells. As for the experimental part: H-Ras-F cells were treated with 25 μM lovastatin for 24 h after which the following were added directly to four samples of the cell media: (1) control-untreated, (2) 3-vinyl-1-[^3H]-farnesol (5 μM, 1.34 μCi/ml), (3) 1-[^3H]-FPP (3 μM, 50 μCi/ml; Amersham), and (4) 1-[^3H]-farnesol (3 μM, 50 μCi/ml; American Radiolabeled Chemicals). […] After drying, the membranes were sprayed with En^3Hance (Amersham) and exposed to film (Hyperfilm MP, Amersham) for a period of time prior to developing (4 days for 1-[^3H]-FPP and 1-[^3H]-farnesol) and 28 days for 3-vinyl-1-[^3H]-farnesol). The exposed films are shown on FIG. 8 where the control and radioactive bands are designated as indicated above.

In experiment [8] the test system is H-Ras-F cells. Nature of the experiment: Proliferation of H-Ras-F cells (control experiments). The format is cell-based.
The subject of experiment [9] is HPAC (human pancreatic adenocarcinoma cells). Kind of experiment: Proliferation of HPAC cells, Trypan Blue exclusion. It counts as cell-based. Particulars: 48 hours. As for the experimental part:
The malignant human cell line HPAC (human pancreatic adenocarcinoma cells) was used in this study. The cells were seeded at a concentration of 2×10^5/ml in 24 well culture plate (Costar, Cambridge, Mass). […] Varying amounts of the stock solutions were then used to treat the HPAC cells. The final concentration of the farnesol analogs in the culture plate wells ranged from 0 nM (ethanol-treated control) to 500 nM. The plate was then incubated at 37° C. under a 5% CO2-humidified atmosphere for 48 hours. The total viable cells from each well were determined by Trypan Blue (0.4%) exclusion (Gibco, N.Y.) followed by cell counting.

Turning to `C=CC/C(=C\COP(=O)(O)OP(=O)(O)O)CC/C=C(\C)CC/C=C(\C)CCC=C(C)C` [Compound 3-alGGPP, 3-Allyl-7,11,15-trimethylhexadeca-2(Z),6(E),10(E),14-tetraene diphosphate], in experiment [1], the IC50 amounted to 453 nM and the FTase/GGTase was determined as 7.5. For the same molecule, the IC50 at recombinant mGGTase I amounted to 3.38 µM. Moreover, in the experiment on H-Ras-F cells [2], the “Reversal of rounded morphology of lovastatin-treated H-Ras-F cells” value is “reversion in morphology”. The “Restoration of flattened morphology of lovastatin-treated H-Ras-GG cells” value in the experiment on H-Ras-GG cells is on record as “partially restore”.
Take `C=C/C(=C\CO)CC/C=C(\C)CC/C=C(\C)CCC=C(C)C` [3-vinyl Geranylgeraniol, 3-Vinyl-7,11,15-trimethylhexadeca-2(Z),6(E),10(E),14-tetraen-1-ol]: the values for the IC50 in experiment [3], in experiment [4] and in experiment [5] were 18 ± 4.1 µM, 13.9 ± 2.3 µM and 5.6 µM, respectively. For the same molecule, in [6], the “Protein geranylgeranylation in cells” value is given as “restores protein geranylgeranylation in cells”.
In the case of “3-vinyl geranylgeranyl diphosphate [Compound 3-vGGPP]”, in experiment [1], the IC50 came out at 715 nM and the FTase/GGTase is on record as 4.3. The IC50 on recombinant mGGTase I amounted to 3.05 µM. Further, the “Membrane localization of H-Ras-GG” value in experiment [6] (H-Ras-GG cells, lovastatin-treated) is listed as “resulted in restoration of the membrane localization of H-Ras-GG”. In addition, the “Reversal of rounded morphology of lovastatin-treated H-Ras-F cells” value in the experiment on H-Ras-F cells [2] is reported as “restore the flattened morphology of cells”. Besides, the “Restoration of flattened morphology of lovastatin-treated H-Ras-GG cells” value in the experiment with H-Ras-GG cells is recorded as “completely restore”.
As for `[3H]C(O)C=C(C=C)CCC=C(C)CCC=C(C)C` (stereo not drawn) [3-vinyl-1-[^3H]-farnesol], in the experiment on H-Ras-F cells [7], the “Radiolabel incorporation into protein bands” value was “the radiolabel migrates with the same protein bands as seen when cells are treated with tritiated farnesol and FPP”.
In the case of `C=CC/C(=C\CO)CC/C=C(\C)CC/C=C(\C)CCC=C(C)C` [3-allyl Geranylgeraniol, 3-Allyl-7,11,15-trimethylhexadeca-2(Z),6(E),10(E),14-tetraen-1-ol], the IC50 in experiment [3] was greater than 25 µM; in experiment [4], 4.6 µM; in experiment [5], greater than 25 µM. Moreover, the “Protein geranylgeranylation in cells” value in [6] is “inhibits protein geranylgeranylation”.
Turning to `CC(C)=CCCC(C)=CCCC(C)=CCO` [farnesol, reference compound], the “Effect on proliferation of H-Ras-F cells” value with H-Ras-F cells [8] (30 μM, data not shown) is reported as “little effect”. For the same molecule, the “Effect on HPAC cells at 500 nM” value in experiment [9] is “no effect”.
Take “3-Vinyl-7,11-dimethyldodeca-2(Z),6(E),10-trien-1-ol [3-vinyl Farnesol]”: the “Effect on growth of H-Ras-F cells” value with H-Ras-F cells [8] (concentration not given) is recorded as “complete inhibition of growth”. In addition, the “Effect on HPAC cells at 100 nM” value in experiment [9] (100 nM) is on record as “cytostasis”. Also, the “Viable HPAC cell count at 100 nM” value in experiment [9] (100 nM, seeded 2×10^5/ml, control well 2.2×10^6 cells) is on record as ~2×10^5 /well. Besides, the results for the “Effect on HPAC cells at 500 nM” value in experiment [9] (listed as 3-Vinylfarnesol) and in [9] (listed as 3-vinylfarnesol) were “complete cytotoxicity” and “potently cytotoxic”, respectively.

As a reminder, the IC50 is the concentration that inhibits the measured activity by half.
